# Experiments:
# [1] = system: Bacillus subtilis C-3102 (FERM BP-1096); assay: Influence of the concentration of germination inducer on turbidity change (Example 2); assay type: cell-based; conditions: for turbidity (630 nm): 37° C., 150 rpm
# Procedure: Next, 500 μL aliquots of bacterial suspension of Bacillus subtilis C-3102 (FERM BP-1096) used in Example 1 were mixed with 500 μL of ferulic acid, or vanillic acid solutions described above, and the mixtures were adjusted to ferulic acid (10 to 600 ppm), or vanillic acid (10 to 1800 ppm) concentrations set forth in Table 2. The concentrations of ferulic acid at the reaction initiation were 10, 100, 300, and 600 ppm, and the concentrations of vanillic acid at the reaction initiation were 10, 100, 300, 600, 1200, and 1800 ppm.
# As same as Example 1, defining the time point of mixing the bacterial suspension with the solution of ferulic acid, or vanillic acid as the reaction initiation (0 min), and continuing shaking (150 rpm) at 37° C., the absorbance (630 nm) was measured at 10, 20, 30, 40, 50, 60, 90, 120, and 180 min after the reaction initiation.
# [2] = system: C-3102 strain; assay: Long time culture of spore suspension with inducer, turbidity up to 24 hours (proliferation check, Example 4); assay type: cell-based, Bacillus subtilis; conditions: 500 μL spore suspension + 500 μL of 600 ppm solution
# Procedure: This Example is an experiment to examine whether proliferation is recognizable or not, when ferulic acid or vanillic acid is mixed with a spore suspension of the C-3102 strain and cultured for a long time period.
# The C-3102 strain was cultured on a nutrient plate at 37° C. for 3 days, and thereafter bacterial cells were collected by a bacteria spreader and a spore suspension was prepared similarly as in Example 1 (OD 630=1.0). After mixing 500 μL of the C-3102 spore suspension with 500 μL of a 600 ppm-ferulic acid solution, or a 600 ppm-vanillic acid solution, change in the turbidity (630 nm) up to 24 hours was examined.
smiles,measurement,setting,value
"COc1cc(C(=O)O)ccc1O [Vanillic acid, vanillic acid]",turbidity (630 nm),"[1]; vanillic acid 10 ppm, 0 min after reaction initiation",0.590
same,turbidity (630 nm),"[1]; vanillic acid 10 ppm, 10 min after reaction initiation",0.558
same,turbidity (630 nm),"[1]; vanillic acid 10 ppm, 20 min after reaction initiation",0.548
same,turbidity (630 nm),"[1]; vanillic acid 10 ppm, 30 min after reaction initiation",0.539
same,turbidity (630 nm),"[1]; vanillic acid 10 ppm, 40 min after reaction initiation",0.527
same,turbidity (630 nm),"[1]; vanillic acid 10 ppm, 50 min after reaction initiation",0.514
same,turbidity (630 nm),"[1]; vanillic acid 10 ppm, 60 min after reaction initiation",0.497
same,turbidity (630 nm),"[1]; vanillic acid 10 ppm, 90 min after reaction initiation",0.472
same,turbidity (630 nm),"[1]; vanillic acid 10 ppm, 120 min after reaction initiation",0.437
same,turbidity (630 nm),"[1]; vanillic acid 10 ppm, 180 min after reaction initiation",0.338
same,turbidity (630 nm),"[1]; vanillic acid 100 ppm, 0 min after reaction initiation",0.584
same,turbidity (630 nm),"[1]; vanillic acid 100 ppm, 10 min after reaction initiation",0.557
same,turbidity (630 nm),"[1]; vanillic acid 100 ppm, 20 min after reaction initiation",0.553
same,turbidity (630 nm),"[1]; vanillic acid 100 ppm, 30 min after reaction initiation",0.537
same,turbidity (630 nm),"[1]; vanillic acid 100 ppm, 40 min after reaction initiation",0.526
same,turbidity (630 nm),"[1]; vanillic acid 100 ppm, 50 min after reaction initiation",0.501
same,turbidity (630 nm),"[1]; vanillic acid 100 ppm, 60 min after reaction initiation",0.491
same,turbidity (630 nm),"[1]; vanillic acid 100 ppm, 90 min after reaction initiation",0.470
same,turbidity (630 nm),"[1]; vanillic acid 100 ppm, 120 min after reaction initiation",0.433
same,turbidity (630 nm),"[1]; vanillic acid 100 ppm, 180 min after reaction initiation",0.315
same,turbidity (630 nm),"[1]; vanillic acid 300 ppm, 0 min after reaction initiation",0.572
same,turbidity (630 nm),"[1]; vanillic acid 300 ppm, 10 min after reaction initiation",0.555
same,turbidity (630 nm),"[1]; vanillic acid 300 ppm, 20 min after reaction initiation",0.543
same,turbidity (630 nm),"[1]; vanillic acid 300 ppm, 30 min after reaction initiation",0.538
same,turbidity (630 nm),"[1]; vanillic acid 300 ppm, 40 min after reaction initiation",0.526
same,turbidity (630 nm),"[1]; vanillic acid 300 ppm, 50 min after reaction initiation",0.507
same,turbidity (630 nm),"[1]; vanillic acid 300 ppm, 60 min after reaction initiation",0.501
same,turbidity (630 nm),"[1]; vanillic acid 300 ppm, 90 min after reaction initiation",0.452
same,turbidity (630 nm),"[1]; vanillic acid 300 ppm, 120 min after reaction initiation",0.381
same,turbidity (630 nm),"[1]; vanillic acid 300 ppm, 180 min after reaction initiation",0.235
same,turbidity (630 nm),"[1]; vanillic acid 600 ppm, 0 min after reaction initiation",0.566
same,turbidity (630 nm),"[1]; vanillic acid 600 ppm, 10 min after reaction initiation",0.568
same,turbidity (630 nm),"[1]; vanillic acid 600 ppm, 20 min after reaction initiation",0.561
same,turbidity (630 nm),"[1]; vanillic acid 600 ppm, 30 min after reaction initiation",0.540
same,turbidity (630 nm),"[1]; vanillic acid 600 ppm, 40 min after reaction initiation",0.512
same,turbidity (630 nm),"[1]; vanillic acid 600 ppm, 50 min after reaction initiation",0.499
same,turbidity (630 nm),"[1]; vanillic acid 600 ppm, 60 min after reaction initiation",0.488
same,turbidity (630 nm),"[1]; vanillic acid 600 ppm, 90 min after reaction initiation",0.447
same,turbidity (630 nm),"[1]; vanillic acid 600 ppm, 120 min after reaction initiation",0.390
same,turbidity (630 nm),"[1]; vanillic acid 600 ppm, 180 min after reaction initiation",0.262
same,turbidity (630 nm),"[1]; vanillic acid 1200 ppm, 0 min after reaction initiation",0.567
same,turbidity (630 nm),"[1]; vanillic acid 1200 ppm, 10 min after reaction initiation",0.559
same,turbidity (630 nm),"[1]; vanillic acid 1200 ppm, 20 min after reaction initiation",0.551
same,turbidity (630 nm),"[1]; vanillic acid 1200 ppm, 30 min after reaction initiation",0.548
same,turbidity (630 nm),"[1]; vanillic acid 1200 ppm, 40 min after reaction initiation",0.520
same,turbidity (630 nm),"[1]; vanillic acid 1200 ppm, 50 min after reaction initiation",0.509
same,turbidity (630 nm),"[1]; vanillic acid 1200 ppm, 60 min after reaction initiation",0.496
same,turbidity (630 nm),"[1]; vanillic acid 1200 ppm, 90 min after reaction initiation",0.474
same,turbidity (630 nm),"[1]; vanillic acid 1200 ppm, 120 min after reaction initiation",0.456
same,turbidity (630 nm),"[1]; vanillic acid 1200 ppm, 180 min after reaction initiation",0.419
same,turbidity (630 nm),"[1]; vanillic acid 1800 ppm, 0 min after reaction initiation",0.579
same,turbidity (630 nm),"[1]; vanillic acid 1800 ppm, 10 min after reaction initiation",0.562
same,turbidity (630 nm),"[1]; vanillic acid 1800 ppm, 20 min after reaction initiation",0.549
same,turbidity (630 nm),"[1]; vanillic acid 1800 ppm, 30 min after reaction initiation",0.538
same,turbidity (630 nm),"[1]; vanillic acid 1800 ppm, 40 min after reaction initiation",0.519
same,turbidity (630 nm),"[1]; vanillic acid 1800 ppm, 50 min after reaction initiation",0.510
same,turbidity (630 nm),"[1]; vanillic acid 1800 ppm, 60 min after reaction initiation",0.498
same,turbidity (630 nm),"[1]; vanillic acid 1800 ppm, 90 min after reaction initiation",0.472
same,turbidity (630 nm),"[1]; vanillic acid 1800 ppm, 120 min after reaction initiation",0.453
same,turbidity (630 nm),"[1]; vanillic acid 1800 ppm, 180 min after reaction initiation",0.420
same,germination induction versus concentration,[1]; vanillic acid of 10 to 1800 ppm,germination was inducted at any concentration to the same extent
same,turbidity (630 nm),[2]; reaction time 0 hr,0.575
same,turbidity (630 nm),[2]; reaction time 0.5 hr,0.540
same,turbidity (630 nm),[2]; reaction time 1 hr,0.481
same,turbidity (630 nm),[2]; reaction time 1.5 hr,0.426
same,turbidity (630 nm),[2]; reaction time 2 hr,0.380
same,turbidity (630 nm),[2]; reaction time 3 hr,0.316
same,turbidity (630 nm),[2]; reaction time 24 hr,0.060
